Test results reported in US11040970B2, “VMAT2 inhibitor compounds and compositions thereof” (Neurocrine Biosciences, Inc., priority 2017, dated 2021).

What follows are compounds tested against VMAT2 (Homo sapiens (Human), UniProt Q05940) (assay: VMAT2 radioligand binding assay: competition against 3H-dihydrotetrabenezine on human platelet homogenate (modified procedure)). Conditions: 10 nM 3H-dihydrotetrabenezine, 25° C., 90 minutes.
Sequence of VMAT2 (Q05940 whole entry): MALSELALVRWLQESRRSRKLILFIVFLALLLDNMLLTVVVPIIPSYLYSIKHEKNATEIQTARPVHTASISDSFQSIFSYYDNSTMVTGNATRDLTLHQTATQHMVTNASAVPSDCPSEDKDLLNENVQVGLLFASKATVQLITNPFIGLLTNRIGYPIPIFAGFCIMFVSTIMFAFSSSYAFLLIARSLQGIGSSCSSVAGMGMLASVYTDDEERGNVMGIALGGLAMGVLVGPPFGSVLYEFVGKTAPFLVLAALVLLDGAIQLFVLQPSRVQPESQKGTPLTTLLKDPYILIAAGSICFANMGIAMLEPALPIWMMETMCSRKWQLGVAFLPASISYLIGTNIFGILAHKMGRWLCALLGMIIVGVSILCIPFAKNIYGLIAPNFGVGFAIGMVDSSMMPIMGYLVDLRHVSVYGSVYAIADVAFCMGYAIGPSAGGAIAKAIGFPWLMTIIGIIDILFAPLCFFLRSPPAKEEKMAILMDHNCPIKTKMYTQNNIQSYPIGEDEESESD
Procedure: Examples of techniques for determining the capability of a compound to inhibit VMAT2 are provided below. The procedure is adapted from that described previously (see, e.g., Near, (1986), Mol. Pharmacol. 30: 252-57; Teng, et al., J. Neurochem. 71, 258-65, 1998). Homogenates from human platelets or Sprague-Dawley rat forebrain were prepared by homogenization and then washed by centrifugation as described previously (see, e.g., Hoare et al., (2003) Peptides 24:1881-97). […] Following incubation at 25° C. for two hours, bound radioligand was collected by rapid filtration onto GF/B glass fiber filters using a Unifilter-96 Harvester (PerkinElmer). Filter plates were pre-treated for 10 minutes with 0.1% polyethylenimine, and following harvesting the filter plates were washed with 800 μl VMAT2 binding buffer. Bound radioligand was quantified by scintillation counting using a Topcount NXT (PerkinElmer).
Following incubation at 25° C. for 90 minutes, bound radioligand was collected by rapid filtration onto GF/B glass fiber filters using a Unifilter-96 Harvester (PerkinElmer). Filter plates were pre-treated with 0.1% polyethylenimine and allowed to dry overnight, and following harvesting the filter plates were washed with 800 μl VMAT2 binding buffer. Bound radioligand was quantified by scintillation counting using a Topcount NXT (PerkinElmer).
CCN1C[C@@H]2c3cc(OC)c(OC)cc3CCN2C[C@H]1CC(C)C [Compound 2-1, (3R,11bS)-2-ethyl-9,10-dimethoxy-3-(2-methylpropyl)-1H,2H,3H,4H,6H,7H,11bH-piperazino[2,1-a]isoquinoline] showed a Ki of 10 to 500 nM.
Compound COc1cc2c(cc1OC)[C@H]1CN(C)[C@H](CC(C)C)CN1CC2 [Compound 2-2, (3R,11bS)-9,10-dimethoxy-2-methyl-3-(2-methylpropyl)-1H,2H,3H,4H,6H,7H,11bH-piperazino[2,1-a]isoquinoline] has a Ki of 10 to 500 nM.
In the case of COc1cc2c(cc1OC)[C@H]1CN(CC(C)C)[C@H](CC(C)C)CN1CC2 [Compound 2-3, (3R,11bS)-9,10-dimethoxy-2,3-bis(2-methylpropyl)-1H,2H,3H,4H,6H,7H,11bH-piperazino[2,1-a]isoquinoline], the Ki is reported as over 500 nM.
Compound CCN1C[C@H]2c3cc(OC)c(OC)cc3CCN2C[C@H]1CC(C)C [Compound 3-1, (3R,11bR)-2-ethyl-9,10-dimethoxy-3-(2-methylpropyl)-1H,2H,3H,4H,6H,7H,11bH-piperazino[2,1-a]isoquinoline] has a Ki of over 500 nM.
Work on COc1cc2c(cc1OC)[C@@H]1CN(C)[C@H](CC(C)C)CN1CC2 [Compound 3-2, (3R,11bR)-9,10-dimethoxy-2-methyl-3-(2-methylpropyl)-1H,2H,3H,4H,6H,7H,11bH-piperazino[2,1-a]isoquinoline] yielded a Ki of over 500 nM.
COc1cc2c(cc1OC)[C@@H]1CN(CC(C)C)[C@H](CC(C)C)CN1CC2 [Compound 3-3, (3R,11bR)-9,10-dimethoxy-2,3-bis(2-methylpropyl)-1H,2H,3H,4H,6H,7H,11bH-piperazino[2,1-a]isoquinoline] gave a Ki of over 500 nM.
For CCOc1cc2c(cc1OC)[C@H]1CN(C)[C@H](CC(C)C)CN1CC2 [Compound 5-1, (3R,11bS)-9-ethoxy-10-methoxy-2-methyl-3-(2-methylpropyl)-1H,2H,3H,4H,6H,7H,11bH-piperazino[2,1-a]isoquinoline], the Ki was under 10 nM.
In the case of COc1cc2c(cc1OC(C)C)CCN1C[C@@H](CC(C)C)N(C)C[C@H]21 [Compound 5-2, (3R,11bS)-10-methoxy-2-methyl-3-(2-methylpropyl)-9-(propan-2-yloxy)-1H,2H,3H,4H,6H,7H,11bH-piperazino[2,1-a]isoquinoline], the Ki is reported as 10 to 500 nM.
In the case of COc1cc2c(cc1OCCCF)CCN1C[C@@H](CC(C)C)N(C)C[C@H]21 [Compound 5-3, (3R,11bS)-9-(3-fluoropropoxy)-10-methoxy-2-methyl-3-(2-methylpropyl)-1H,2H,3H,4H,6H,7H,11bH-piperazino[2,1-a]isoquinoline], the Ki is reported as 10 to 500 nM.
Work on COc1cc2c(cc1OCCF)CCN1C[C@@H](CC(C)C)N(C)C[C@H]21 [Compound 5-4, (3R,11bS)-9-(2-fluoroethoxy)-10-methoxy-2-methyl-3-(2-methylpropyl)-1H,2H,3H,4H,6H,7H,11bH-piperazino[2,1-a]isoquinoline] yielded a Ki of 10 to 500 nM.
COc1cc2c(cc1OC1CC1)CCN1C[C@@H](CC(C)C)N(C)C[C@H]21 [Compound 5-5, (3R,11bS)-9-cyclopropoxy-10-methoxy-2-methyl-3-(2-methylpropyl)-1H,2H,3H,4H,6H,7H,11bH-piperazino[2,1-a]isoquinoline] was tested, and the Ki was 10 to 500 nM.
Work on CCCOc1cc2c(cc1OC)[C@H]1CN(C)[C@H](CC(C)C)CN1CC2 [Compound 5-6, (3R,11bS)-10-methoxy-2-methyl-3-(2-methylpropyl)-9-propoxy-1H,2H,3H,4H,6H,7H,11bH-piperazino[2,1-a]isoquinoline] yielded a Ki of under 10 nM.
Work on COc1cc2c(cc1OC1CCCC1)CCN1C[C@@H](CC(C)C)N(C)C[C@H]21 [Compound 5-7, (3R,11bS)-9-(cyclopentyloxy)-10-methoxy-2-methyl-3-(2-methylpropyl)-1H,2H,3H,4H,6H,7H,11bH-piperazino[2,1-a]isoquinoline] yielded a Ki of under 10 nM.
Work on C=CCOc1cc2c(cc1OC)[C@H]1CN(C)[C@H](CC(C)C)CN1CC2 [Compound 5-8, (3R,11bS)-10-methoxy-2-methyl-3-(2-methylpropyl)-9-(prop-2-en-1-yloxy)-1H,2H,3H,4H,6H,7H,11bH-piperazino[2,1-a]isoquinoline] yielded a Ki of under 10 nM.
Work on COc1cc2c(cc1OCC(C)C)CCN1C[C@@H](CC(C)C)N(C)C[C@H]21 [Compound 5-9, (3R,11bS)-10-methoxy-2-methyl-9-(2-methylpropoxy)-3-(2-methylpropyl)-1H,2H,3H,4H,6H,7H,11bH-piperazino[2,1-a]isoquinoline] yielded a Ki of under 10 nM.
Compound COCCOc1cc2c(cc1OC)[C@H]1CN(C)[C@H](CC(C)C)CN1CC2 [Compound 5-10, (3R,11bS)-10-methoxy-9-(2-methoxyethoxy)-2-methyl-3-(2-methylpropyl)-1H,2H,3H,4H,6H,7H,11bH-piperazino[2,1-a]isoquinoline] has a Ki of 10 to 500 nM.
For COc1cc2c(cc1OCC1CCC1)CCN1C[C@@H](CC(C)C)N(C)C[C@H]21 [Compound 5-11, (3R,11bS)-9-(cyclobutylmethoxy)-10-methoxy-2-methyl-3-(2-methylpropyl)-1H,2H,3H,4H,6H,7H,11bH-piperazino[2,1-a]isoquinoline], the Ki was under 10 nM.
For COc1cc2c(cc1OCCCC#N)CCN1C[C@@H](CC(C)C)N(C)C[C@H]21 [Compound 5-12, 4-{[(3R,11bS)-10-methoxy-2-methyl-3-(2-methylpropyl)-1H,2H,3H,4H,6H,7H,11bH-piperazino[2,1-a]isoquinolin-9-yl]oxy}butanenitrile], the Ki was 10 to 500 nM.
COc1cc2c(cc1OCCCC(F)(F)F)CCN1C[C@@H](CC(C)C)N(C)C[C@H]21 [Compound 5-13, (3R,11bS)-10-methoxy-2-methyl-3-(2-methylpropyl)-9-(4,4,4-trifluorobutoxy)-1H,2H,3H,4H,6H,7H,11bH-piperazino[2,1-a]isoquinoline] gave a Ki of under 10 nM.
Work on COc1cc2c(cc1OCCCCF)CCN1C[C@@H](CC(C)C)N(C)C[C@H]21 [Compound 5-14, (3R,11bS)-9-(4-fluorobutoxy)-10-methoxy-2-methyl-3-(2-methylpropyl)-1H,2H,3H,4H,6H,7H,11bH-piperazino[2,1-a]isoquinoline] yielded a Ki of under 10 nM.
Compound COc1cc2c(cc1OCC1CC1)CCN1C[C@@H](CC(C)C)N(C)C[C@H]21 [Compound 5-15, (3R,11bS)-9-(cyclopropylmethoxy)-10-methoxy-2-methyl-3-(2-methylpropyl)-1H,2H,3H,4H,6H,7H,11bH-piperazino[2,1-a]isoquinoline] has a Ki of under 10 nM.
Work on COc1cc2c(cc1OC1CCC1)CCN1C[C@@H](CC(C)C)N(C)C[C@H]21 [Compound 5-16, (3R,11bS)-9-cyclobutoxy-10-methoxy-2-methyl-3-(2-methylpropyl)-1H,2H,3H,4H,6H,7H,11bH-piperazino[2,1-a]isoquinoline] yielded a Ki of under 10 nM.
For COc1cc2c(cc1OCC(F)(F)F)CCN1C[C@@H](CC(C)C)N(C)C[C@H]21 [Compound 5-17, (3R,11bS)-10-methoxy-2-methyl-3-(2-methylpropyl)-9-(2,2,2-trifluoroethoxy)-1H,2H,3H,4H,6H,7H,11bH-piperazino[2,1-a]isoquinoline], the Ki was under 10 nM.
Work on COc1cc2c(cc1OCC1CC1(F)F)CCN1C[C@@H](CC(C)C)N(C)C[C@H]21 (stereo partly drawn) [Compound 5-18, (3R,11bS)-9-[(2,2-difluorocyclopropyl)methoxy]-10-methoxy-2-methyl-3-(2-methylpropyl)-1H,2H,3H,4H,6H,7H,11bH-piperazino[2,1-a]isoquinoline] yielded a Ki of under 10 nM.
Compound COc1cc2c(cc1OCCC(F)(F)F)CCN1C[C@@H](CC(C)C)N(C)C[C@H]21 [Compound 5-19, (3R,11bS)-10-methoxy-2-methyl-3-(2-methylpropyl)-9-(3,3,3-trifluoropropoxy)-1H,2H,3H,4H,6H,7H,11bH-piperazino[2,1-a]isoquinoline] has a Ki of under 10 nM.
COc1cc2c(cc1OC(C)C)CCN1C[C@@H](CC(C)C)N(C)C[C@@H]21 [Compound 6-1, (3R,11bR)-10-methoxy-2-methyl-3-(2-methylpropyl)-9-(propan-2-yloxy)-1H,2H,3H,4H,6H,7H,11bH-piperazino[2,1-a]isoquinoline] showed a Ki of over 500 nM.
In the case of COc1cc2c(cc1OCCCF)CCN1C[C@@H](CC(C)C)N(C)C[C@@H]21 [Compound 6-2, (3R,11bR)-9-(3-fluoropropoxy)-10-methoxy-2-methyl-3-(2-methylpropyl)-1H,2H,3H,4H,6H,7H,11bH-piperazino[2,1-a]isoquinoline], the Ki is reported as over 500 nM.
COc1cc2c(cc1OCCF)CCN1C[C@@H](CC(C)C)N(C)C[C@@H]21 [Compound 6-3, (3R,11bR)-9-(2-fluoroethoxy)-10-methoxy-2-methyl-3-(2-methylpropyl)-1H,2H,3H,4H,6H,7H,11bH-piperazino[2,1-a]isoquinoline] showed a Ki of over 500 nM.
For COc1cc2c(cc1OC1CC1)CCN1C[C@@H](CC(C)C)N(C)C[C@@H]21 [Compound 6-4, (3R,11bR)-9-cyclopropoxy-10-methoxy-2-methyl-3-(2-methylpropyl)-1H,2H,3H,4H,6H,7H,11bH-piperazino[2,1-a]isoquinoline], the Ki was over 500 nM.
COc1cc2c(cc1OCCCF)CCN1C[C@@H](CC3CCC3)N(C)C[C@H]21 [Compound 8-1, (3R,11bS)-3-(cyclobutylmethyl)-9-(3-fluoropropoxy)-10-methoxy-2-methyl-1H,2H,3H,4H,6H,7H,11bH-piperazino[2,1-a]isoquinoline] was tested, and the Ki was 10 to 500 nM.
COc1cc2c(cc1OCC(F)(F)F)CCN1C[C@@H](CC3CCC3)N(C)C[C@H]21 [Compound 8-2, (3R,11bS)-3-(cyclobutylmethyl)-10-methoxy-2-methyl-9-(2,2,2-trifluoroethoxy)-1H,2H,3H,4H,6H,7H,11bH-piperazino[2,1-a]isoquinoline] gave a Ki of under 10 nM.
